In ChEMBL document CHEMBL6153025, “Multidrug-resistant bacteria quorum-sensing inhibitors: A particular focus on Pseudomonasaeruginosa” (Eur J Med Chem, 2025):
Converted amounts (≈) assume the structure as drawn.

Tests used:
Pseudomonas aeruginosa [1] = assay: Downregulation of rhlR mRNA expression level in Pseudomonas aeruginosa PAO1 at 200 uM by RT-PCR analysis relative to control; type: functional
Pseudomonas aeruginosa [2] = assay: Downregulation of rhlI mRNA expression level in Pseudomonas aeruginosa PAO1 at 200 uM by RT-PCR analysis relative to control; type: functional
Pseudomonas aeruginosa [3] = assay: Antibiofilm activity against Pseudomonas aeruginosa PAO1; type: functional, organism-based
Pseudomonas aeruginosa [4] = assay: Downregulation of lasI mRNA expression level in Pseudomonas aeruginosa PAO1 at 200 uM by RT-PCR analysis relative to control; type: functional
Pseudomonas aeruginosa [5] = assay: Downregulation of lasR mRNA expression level in Pseudomonas aeruginosa PAO1 at 200 uM by RT-PCR analysis relative to control; type: functional
Pseudomonas aeruginosa [6] = assay: Antibiofilm activity against Pseudomonas aeruginosa ATCC 15442 assessed as inhibition of biofilm formation at 16 ug/ml relative to control; type: functional; parameters: scale not given: the % may be the effect or the level left; settings: dose 16 µg/ml
Pseudomonas aeruginosa [7] = assay: Antibacterial activity against Pseudomonas aeruginosa ATCC 15442 assessed as reduction in bacterial cell growth incubated for 18 hrs by two fold serial microdilution method; type: functional
Pseudomonas aeruginosa [8] = assay: Antivirulence activity against Pseudomonas aeruginosa PAO1 assessed as inhibition of pyocyanin production at 16 ug/ml relative to control; type: functional; parameters: scale not given: the % may be the effect or the level left; settings: dose 16 µg/ml
[9] = Inhibition of quorum sensing system in Pseudomonas aeruginosa PAO1 expressing lasB-gfp at 16 uM relative to control
Pseudomonas aeruginosa [10] = assay: Antibiofilm activity against Pseudomonas aeruginosa PAO1 assessed as inhibition of biofilm formation at 1 to 100 uM incubated for 24 hrs by crystal violet staining based assay relative to control; type: functional; parameters: scale not given: the % may be the effect or the level left; settings: dose 1-100 µM
Pseudomonas aeruginosa [11] = assay: Antibiofilm activity against Pseudomonas aeruginosa PA14 assessed as inhibition of biofilm formation at 16 ug/ml incubated for 24 hrs by microscopic analysis relative to control; type: functional; parameters: scale not given: the % may be the effect or the level left; settings: dose 16 µg/ml
[12] = target: T1, Transcriptional activator protein LasR (Pseudomonas aeruginosa (strain ATCC 15692 / PAO1 / 1C / PRS 101 / LMG12228)) (UniProt P25084); assay: Inhibition of LasR-mediated quorum sensing system in Pseudomonas aeruginosa PAO1 at 128 ug/ml relative to control; settings: dose 128.0 µg/ml
T1 sequence (whole entry): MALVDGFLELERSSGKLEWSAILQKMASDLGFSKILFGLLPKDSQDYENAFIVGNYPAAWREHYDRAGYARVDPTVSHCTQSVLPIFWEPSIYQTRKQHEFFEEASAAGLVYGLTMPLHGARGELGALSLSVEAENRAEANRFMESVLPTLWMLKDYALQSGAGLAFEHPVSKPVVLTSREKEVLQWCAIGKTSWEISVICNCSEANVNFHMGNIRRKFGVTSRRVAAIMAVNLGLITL

[13] = Inhibition of quorum sensing system in Pseudomonas aeruginosa PA14 assessed as inhibition of pyocyanin production at 128 ug/ml relative to control; settings: dose 128.0 µg/ml
Pseudomonas aeruginosa [14] = assay: Antivirulence activity against Pseudomonas aeruginosa PAO1 assessed as inhibition of rhamnolipid production at 16 ug/ml relative to control; type: functional; parameters: scale not given: the % may be the effect or the level left; settings: dose 16 µg/ml
Pseudomonas aeruginosa [15] = assay: Antimicrobial activity against Pseudomonas aeruginosa PAO1 assessed as inhibition of bacterial growth measured for 18 hrs by CLSI-based broth microdilution method; type: functional
Pseudomonas aeruginosa [16] = assay: Antibacterial activity against Pseudomonas aeruginosa ATCC 27853 assessed as bacterial growth inhibition by agar diffusion assay; type: functional
Pseudomonas aeruginosa [17] = assay: Antibacterial activity against Pseudomonas aeruginosa ATCC 27853; type: functional, organism-based
Pseudomonas aeruginosa [18] = assay: Downregulation of lasR mRNA expression in Pseudomonas aeruginosa PAO1; type: functional
Pseudomonas aeruginosa [19] = assay: Antibiofilm activity against Pseudomonas aeruginosa PAO1 assessed as inhibition of biofilm formation at 16 ug/ml incubated for 24 hrs by crystal violet staining based assay relative to control; type: functional; parameters: scale not given: the % may be the effect or the level left; settings: dose 16 µg/ml
Pseudomonas aeruginosa [20] = assay: Antibacterial activity against Pseudomonas aeruginosa PAO1 by broth microdilution method; type: functional
Pseudomonas aeruginosa [21] = assay: Downregulation of lasB mRNA level in Pseudomonas aeruginosa PAO1; type: functional
Pseudomonas aeruginosa [22] = assay: Antivirulence activity against Pseudomonas aeruginosa PAO1 assessed as reduction in pyocyanin production at 20 ug/ml relative to control; type: functional; parameters: scale not given: the % may be the effect or the level left; settings: dose 20 µg/ml
Pseudomonas aeruginosa [23] = assay: Antivirulence activity in Pseudomonas aeruginosa PAO1 assessed as reduction in elastase production at 10 uM incubated for 24 hrs by elastin-congo red dye based absorbance assay relative to control; type: functional; parameters: scale not given: the % may be the effect or the level left
Pseudomonas aeruginosa [24] = assay: Antibacterial activity against Pseudomonas aeruginosa PAO1 assessed as reduction in bacterial growth; type: functional
Pseudomonas aeruginosa [25] = assay: Antibiofilm activity against Pseudomonas aeruginosa PAO1 assessed as inhibition of biofilm formation at 16 microg/ml incubated for 20 hrs by crystal violet staining based analysis; type: functional; parameters: scale not given: the % may be the effect or the level left; settings: dose 16 µg/ml
[26] = Inhibition of quorum sensing system in Pseudomonas aeruginosa PAO1 expressing lasI-gfp assessed as inhibition of lasI expression at 50 ug/ml incubated for 8 hrs under shaking condition by microplate reader based analysis relative to control; settings: dose 50.0 µg/ml
[27] = Inhibition of quorum sensing system in Pseudomonas aeruginosa PAO1-rhlA-gfp assessed as inhibition of rhlA expression at 50 ug/ml incubated for 8 hrs by microplate reader based analysis relative to control; settings: dose 50.0 µg/ml
Pseudomonas aeruginosa [28] = assay: Antibiofilm activity against Pseudomonas aeruginosa PAO1 assessed as inhibition of biofilm formation at 32 ug/ml incubated for 8 hrs by crystal violet staining based assay relative to control; type: functional; parameters: scale not given: the % may be the effect or the level left; settings: dose 32 µg/ml
[29] = Inhibition of quorum sensing system in Pseudomonas aeruginosa PAO1 expressing lasB-gfp assessed as reduction fluorescence intensity measured for 12 hrs by GFP reporter strain assay
[30] = Inhibition of quorum sensing system in Pseudomonas aeruginosa PAO1 expressing lasB-gfp
Pseudomonas aeruginosa [31] = assay: Antibiofilm activity against Pseudomonas aeruginosa ATCC 27853 assessed as reduction in biofilm formation at 10 uM relative to control; type: functional; parameters: scale not given: the % may be the effect or the level left
Pseudomonas aeruginosa [32] = assay: Anti-virulence activity against Pseudomonas aeruginosa PAO1-L assessed as reduction in pyocyanin production at 10 uM incubated for 24 hrs by absorbance based analysis relative to control; type: functional; parameters: scale not given: the % may be the effect or the level left
Pseudomonas aeruginosa [33] = assay: Antibacterial activity against Pseudomonas aeruginosa PAO1-L; type: functional, organism-based
Pseudomonas aeruginosa [34] = assay: Downregulation of lasI mRNA expression in Pseudomonas aeruginosa PAO1 at 16 ug/ml relative to control; type: functional; settings: dose 16 µg/ml
Pseudomonas aeruginosa [35] = assay: Downregulation of lasR mRNA expression in Pseudomonas aeruginosa PAO1 at 16 ug/ml relative to control; type: functional; settings: dose 16 µg/ml
Pseudomonas aeruginosa [36] = assay: Downregulation of rhlR mRNA expression in Pseudomonas aeruginosa PAO1 at 160 ug/ml incubated for 6 hrs by RT-qPCR analysis relative to control; type: functional; settings: dose 160 µg/ml
Pseudomonas aeruginosa [37] = assay: Antibiofilm activity against Pseudomonas aeruginosa PAO1 assessed as reduction in biofilm formation at 16 ug/ml incubated for 2 to 4 hrs by crystal violet staining based analysis relative to control; type: functional; parameters: scale not given: the % may be the effect or the level left; settings: dose 16 µg/ml; time 2-4 hrs
Pseudomonas aeruginosa [38] = assay: Downregulation of pqsR mRNA expression in Pseudomonas aeruginosa PAO1; type: functional
Pseudomonas aeruginosa [39] = assay: Downregulation of pqsA mRNA expression in Pseudomonas aeruginosa PAO1; type: functional

O=c1cc(-c2ccc(O)c(O)c2)oc2cc(O)cc(O)c12 [LUTEOLIN]
Activity (Pseudomonas aeruginosa [1]): 98%
Activity (Pseudomonas aeruginosa [2]): 98%
IC50 (Pseudomonas aeruginosa [3]): 50 µM
Activity (Pseudomonas aeruginosa [4]): 98%
Activity (Pseudomonas aeruginosa [5]): 98%

Cc1nc2cccc(Br)c2c(=O)n1/N=C/c1ccc(O)cc1
Activity (Pseudomonas aeruginosa [6]): 25%
MIC (Pseudomonas aeruginosa [7]): > 50 µM
Activity (Pseudomonas aeruginosa [8]): 99.5%

CCCCC/C=C\C/C=C\CCCCCCCC(=O)O
inhibition [9]: 41%

Oc1ccc([C@H]2Oc3cc(O[C@H]4OC[C@@H](O)[C@@H](O)[C@@H]4O)cc(O)c3C[C@H]2O)cc1O
Activity (Pseudomonas aeruginosa [10]): 66%

O=C(CN1CCOCC1)Nc1cccc([N+](=O)[O-])c1
Activity (Pseudomonas aeruginosa [11]): 77%
inhibition [12]: 45.1%
inhibition [13]: 75%

COc1ccc(-c2cc(=O)c3c(O)cc(O)cc3o2)cc1 [ACACETIN]
Activity (Pseudomonas aeruginosa [14]): 67%
MIC (Pseudomonas aeruginosa [15]): 0.48 µg/mL (≈ 1.69 µM)
Activity (Pseudomonas aeruginosa [8]): 53%

O=C(CSc1nc2ccccc2s1)c1ccc2c(c1)OCCO2
MIC (Pseudomonas aeruginosa [16]): > 512 µg/mL
IC50 (Pseudomonas aeruginosa [17]): 115 µg/mL (≈ 335 µM)

COc1ccccc1N1CCN(c2ccnc(SCC(=O)Nc3c(C)cc(C)cc3C)n2)CC1
Activity (Pseudomonas aeruginosa [14]): 62.46%
Activity (Pseudomonas aeruginosa [18]): 85%
Activity (Pseudomonas aeruginosa [19]): 52.4%
MIC (Pseudomonas aeruginosa [20]): 500 µM (≈ 239 µg/mL)
Activity (Pseudomonas aeruginosa [8]): 76.56%
Activity (Pseudomonas aeruginosa [21]): 85%

Cc1ccc(CCC(=O)NC2CCOC2=O)cc1 (stereo not given)
Activity (Pseudomonas aeruginosa [22]): 66%
Activity (Pseudomonas aeruginosa [23]): 52%
MIC (Pseudomonas aeruginosa [24]): 10 µM (≈ 2.47 µg/mL)
Activity (Pseudomonas aeruginosa [25]): 52%
inhibition [26]: 82%
inhibition [27]: 91%

[O-][S+](Cc1ccc(Cl)cc1)c1nnc(-c2ccccc2)o1 (stereo not given)
Activity (Pseudomonas aeruginosa [28]): 46.8%
IC50 [29]: 3.53 µM

Cc1nc2cccc(Br)c2c(=O)n1/N=C/C=C/c1ccccc1
Activity (Pseudomonas aeruginosa [6]): 58%
MIC (Pseudomonas aeruginosa [7]): > 50 µM

Oc1ccc2c(c1)OC[C@](O)(Cc1ccc(O)c(O)c1)[C@H]2O [SAPPANOL]
Activity (Pseudomonas aeruginosa [10]): 54.26%

O=C(CCc1ccc(Br)cc1)NC1CCOC1=O (stereo not given)
Activity (Pseudomonas aeruginosa [22]): 19%
Activity (Pseudomonas aeruginosa [23]): 44%
MIC (Pseudomonas aeruginosa [24]): 10 µM (≈ 3.12 µg/mL)
Activity (Pseudomonas aeruginosa [25]): 48%
inhibition [26]: 87%
inhibition [27]: 80%

N#CCc1ccc(OC[C@H](O)Cn2cnc3ccc(Cl)cc3c2=O)cc1
IC50 [30]: 1 µM
Activity (Pseudomonas aeruginosa [31]): 52%
Activity (Pseudomonas aeruginosa [32]): 80%
IC50 (Pseudomonas aeruginosa [33]): 4.3 µM

C=CCc1ccc(O)c(OC)c1 [EUGENOL]
Activity (Pseudomonas aeruginosa [34]): 52%
Activity (Pseudomonas aeruginosa [35]): 51%
Activity (Pseudomonas aeruginosa [36]): 65%
Activity (Pseudomonas aeruginosa [37]): 50%

COc1ccc([C@H](CNC(=O)Nc2ccccc2F)c2c[nH]c3ccccc23)cc1OC
Activity (Pseudomonas aeruginosa [14]): 66.4%
Activity (Pseudomonas aeruginosa [38]): 90%
Activity (Pseudomonas aeruginosa [19]): 67.32%
MIC (Pseudomonas aeruginosa [20]): 500 µM (≈ 217 µg/mL)
Activity (Pseudomonas aeruginosa [8]): 74.27%
Activity (Pseudomonas aeruginosa [39]): 90%
